Results taken from US20240309014A1, “MACROCYCLIC COMPOUNDS AND USES THEREOF” (President and Fellows of Harvard College, priority 2017, published 2024).

How the values were obtained:
[1] = system: KPL-4 subcutaneous xenograft; assay: KPL-4 subcutaneous xenograft model in combination with trastuzumab; type: in vivo, nude mice
Method: A human HER-2 positive breast cancer cell line KPL-4, which had been cultured in an RPMI-1640 medium containing 10% FBS, and penicillin and streptomycin, was adjusted to a concentration of 1×10^8 cells/mL with Hank's Balanced Salt Solution to prepare a cell suspension. The cell suspension was inoculated in a volume of 100 μL into a subcutaneous part of a right flank of nude mice, 7 weeks of ages (CAnN.Cg-Foxnlnu/CrlCrlj, female, Charles River Laboratories Japan, Inc.). Sixteen days after the cell inoculation, the shortest diameter and the longest diameter of a tumor in each mouse were measured by using an electronic digital caliper (Digimatic™ caliper, Mitutoyo Corporation), so as to calculate the volume of the tumor in accordance with the following calculation formulae: […]
(§1) On the basis of the volumes of tumors obtained on the first day of administration, the mice were grouped such that averages of the tumor volumes were substantially equal among the groups. The experiment was conducted on groups each consisting of 6 mice. Each test compound was dissolved in DMSO and a solution was stored at the freezer before use. Immediately before the administration, the stock solution was diluted in saline.

[2] = system: tubulin protein purified from porcine brain; assay: Cell-free tubulin polymerization assay; type: biochemical; details: final concentrations 0.625-10 μmol/L
Method: Tubulin Polymerization Assay kit was purchased from Cytoskeleton, Inc. (Cat.#BKO11P). The kit contained 1 bottle of lyophilized tubulin protein purified from porcine brain, 3 tubes of lyophilized GTP, 2 bottles of lyophilized assay buffer, and 1 bottle of tubulin glycerol buffer. Assay buffer was prepared by dissolving the contents in 10 mL of deionized and sterilized water. This solution contained 80 mmol/L piperazine-N,N′-bis[2-ethanesulfonic acid] sesquisodium salt, 2.0 mmol/L magnesium chloride, 0.5 mmol/L ethylene glycol-bis(2-amino-ethyl ether) N,N,N′,N-tetra-acetic acid, pH 6.9, and 10 μmol/L fluorescent reporter.
The buffer was stored at −70° C. until use. […]
In the tubulin polymerization assay, reaction mixture was prepared by mixing 820 µL of assay buffer, 17.6 μL of GTP stock solution, and 600 μL of tubulin glycerol buffer. […] Fluorescence emission at 460 nm (excitation wavelength at 360 nm) was measured every 2 minutes for 90 minutes using the SpectraMax® M5e microplate reader (Molecular Devices). Tubulin polymerization was followed by fluorescence enhancement due to the incorporation of a fluorescence reporter into microtubules as polymerization occurred. […]

[3] = system: KPL-4 subcutaneous xenograft; assay: KPL-4 xenograft model as monotherapy (FIG. 12); type: in vivo, nude mice
Method: A human HER-2 positive breast cancer cell line KPL-4, which had been cultured in a DMEM containing 10% FBS, and penicillin-streptomycin, was adjusted to a concentration of 1×10^8 cells/mL with Hanks' Balanced Salt Solution to prepare a cell suspension. The cell suspension was inoculated in a volume of 100 μL into a subcutaneous part of a right flank of nude mice, 8 weeks of ages (CAnN.Cg-Foxnlnu/CrlCrlj, female, Charles River Laboratories Japan Inc.). Eleven days after cell inoculation (Day 1), the shortest diameter and the longest diameter of a tumor in each mouse were measured by using an electronic digital caliper (Digimatic™ caliper, Mitutoyo Corporation), so as to calculate the volume of the tumor in accordance with the following calculation formulae: […]
On the basis of the volumes of tumors obtained on Day 1, the mice were grouped such that averages of the tumor volumes were substantially equal among the groups. The experiment was conducted on groups each consisting of six mice. The test compound was dissolved in DMSO and a solution was stored in the freezer before use. Immediately before the administration, the stock solution was diluted with saline. The test compound in saline was intravenously once-weekly administered at 20 μg/kg, 60 μg/kg, or 180 μg/kg for 2 weeks (on Day 1 and Day 8).

[4] = system: human uterine sarcoma cell line MES-SA xenograft; assay: MES-SA soft tissue sarcoma xenograft as monotherapy (FIG. 17); type: in vivo, nude mice; details: 180 μg/kg i.v. Day 1 and Day 8
Method: A human uterine sarcoma cell line MES-SA, which had been cultured in an RPMI-1640 containing 10% FBS, and penicillin-streptomycin, was adjusted to a concentration of 2×10^8 cells/mL with Hanks' Balanced Salt Solution to prepare a cell suspension, and the suspension was mixed with Geltrex® (Thermo Fisher Scientific Inc., #A1413202) in a ratio of 1:1 to prepare a cell suspension in a concentration of 1×10^8 cells/mL. The cell suspension was inoculated in a volume of 100 μL into a subcutaneous part of a right flank of nude mice, 6 weeks of ages (CAnN.Cg-Foxnlnu/CrlCrlj, female, Charles River Laboratories Japan Inc.). Six days after cell inoculation (Day 1), the shortest diameter and the longest diameter of a tumor in each mouse were measured by using an electronic digital caliper (Digimatic™ caliper, Mitutoyo Corporation), so as to calculate the volume of the tumor in accordance with the following calculation formulae: […]
as §1, with “on Day 1,” for “on the first day of administration,”, “mice. The” for “mice. Each”, “stored in” for “stored at”, “diluted with” for “diluted in”, “saline. […]” for “saline.”

Q: With `C=C1C[C@@H]2CC[C@@]34C[C@H]5O[C@H]6[C@@H](O3)[C@H]3O[C@H](CC[C@@H]3O[C@H]6C5O4)CC(=O)O[C@@H]3[C@@H](C)[C@@H]4O[C@@H]5C[C@]6(C[C@@H]7O[C@]8(C[C@H](C)[C@@H]9O[C@H](CN)[C@H](O)C[C@@H]9O8)C[C@H](C)[C@@H]7O6)O[C@@H]5C[C@@H]4O[C@H]3C[C@H]3O[C@@H](CC[C@@H]1O2)C[C@@H](C)C3=C` (stereo in doubt) [Compound (1)] as the compound, how does the “Tumor Regression (%)” value ([1]; 0.09 mg/kg i.v. + trastuzumab 10 mg/kg) read?
A: Its value is 83%.

Q: And the “Tumor Regression (%)” value ([1]; 0.09 mg/kg i.v., without trastuzumab)?
A: Its value is 43%.

Q: What about the “Tumor Regression (%)” value ([1]; 0.18 mg/kg i.v. + trastuzumab 10 mg/kg) of the same compound?
A: Its value is 100%.

Q: And the “Tumor Regression (%)” value ([1]; 0.18 mg/kg i.v., without trastuzumab)?
A: Its value is 87%.

Q: And the “effect on tubulin polymerization” value [2]?
A: Its value is “inhibited tubulin polymerization in a concentration-dependent manner”.

Q: And the antitumor effect ([3]; 60 μg/kg i.v. Day 1 and Day 8)?
A: The antitumor effect was “tumor regression”.

Q: What about the antitumor effect ([3]; 180 μg/kg i.v. Day 1 and Day 8) of the same compound?
A: Its antitumor effect is “tumor regression”.

Q: And the “xenograft tumors on Day 15” value ([3]; 180 μg/kg i.v. Day 1 and Day 8)?
A: The value was “completely eradicated the xenograft tumors in all mice”.

Q: And the antitumor activity [4]?
A: The antitumor activity was “tumor growth delay”.
